Data on 6 compounds can be found in patent publication US11458153B2, “Drug delivery composition comprising a self-assembled gelator” (The Brigham and Women's Hospital, Inc., priority 2008, dated 2022).

“Also recorded” adds a separate entry of the source.

The nature of data set [1]: Gelation studies with Apn-based prodrug gelators in water and organic solvents. Further details: key to Gelation ability: G = gel; P = precipitate; S = soluble; I = insoluble. The following applies: for gelation in water (in words): water / aqueous solutions. In kind it is physicochemical. From the text:
Gelation Studies with Prodrug-Based Gelators. Gelation abilities of Apn based amphiphilic prodrugs have been investigated thoroughly in a wide range of solvents. For detailed gelation results, see Table 1, below). Typically, the required amount of gelator was placed in a glass vial and with an appropriate solvent. […] The resulting solution was slowly cooled to room temperature and gelation was visually observed. […] Despite of prolonged heating Apn-11-CH3 was not soluble in water. […] In addition, Apn-7-COOH is soluble in basic solutions (pH is more than 8).
All gels were opaque in nature and stable for several weeks.
Preparation of Gels. Typically, gelator (0.1-5 mg) and required solvent (0.1-1 mL) were placed into a 2 mL scintillation vial, which was then sealed with a screw cap. The vial was heated with shaking until the solid was completely dissolved.

The subject of data set [2] is mesenchymal stem cells (MSCs). As to the kind of experiment: MSC viability, trypan blue exclusion. In kind it is cell-based, human. As to conditions: 250 μM, 48 hours incubation. On the procedure: Cytocompatibility. The cytocompatibility of prodrugs generated from small modification of known drugs was investigated. […] To test the cyto compatibility of prodrug-based amphiphiles and bolaamphiphiles, and their effect on cell characteristics such as viability, proliferation, adhesion and cell phenotype, a series of experiments was performed with mesenchymal stem cells (MSCs). To gain more insight into the effect of modification, unmodified drug Apn was used as a control. The viability of control cells and cells treated with Apn, Apn-7-COOH and Apn-8-Apn was examined with trypan blue assay. Use of Mesenchymal stem cells is appropriate given that these systems may be used for localized release likely into connective tissues.
Mesenchymal Stem Cell Culture. Primary human mesenchymal stem cells were maintained in expansion media that consisted of 15% Fetal Bovine Serum (selected for its ability to expand MSCs), 1% (v/v) L-Glutamine, 1% (v/v) Penn-Strep, and α-MEM. All experiments were performed using MSCs at passage number 4-6.
Viability, Adhesion and Proliferation Characteristics. The viability of the cells was examined using trypan blue exclusion. […] The media was then aspirated and the cells were detached with 200 μL of cell dissociated solution (similar quantities of floating cells were observed between the groups, typically 5-10 per well). 300 μL of media was added and the total 500 μL of the cell dispersion was collected in an eppendorf tubes. From this 10 μL of cell dispersion was diluted to 1:1 with 4% trypan blue solution and cells were counted in a hemocytometer to determine the number viable (non-blue) and nonviable (blue) cells. A control for this experiment included cells treated with only phosphate buffer saline (PBS) without an amphiphile. Cell adhesion was quantified by measuring the number of adherent cells on tissue culture surfaces in 96 well plates after incubating with amphiphiles for 12 hours. For proliferation studies, 5000 cells were added to each well of a 96 well plate in 200 μL of MSC cell expansion media, and appropriate amphiphiles were then added and incubated at 37° C. and 5% CO2. Proliferation was quantified by manually tabulating the number of cells within the flask at multiple time points (1, 2, 3, 4, 6 and 8 days) with light microscopy at 10×.

The test system of data set [3] is mesenchymal stem cells (MSCs). As to the kind of experiment: MSC adipogenic differentiation, Oil Red O staining. In kind it is cell-based, human. As to conditions: 250 μM, 23 days of induction. The procedure: (§1) Unlike typical fibroblast cell lines used for toxicity screening, cultured mesenchymal stem cells are highly sensitive to the presence of soluble factors and can often loose their capacity for multi-lineage differentiation or differentiate into non-desired lineages depending on the culture conditions. To examine the impact of the acetaminophen amphiphilic prodrugs on multi-lineage differentiation of MSCs, cells were treated with adipogenic and osteogenic induction media in presence of amphiphiles followed by respective colorimetric histological staining.
Adipogenic Differentiation. MSCs were seeded in the wells of 24 well plates, and were culture in MSC expansion media until they reach 90% confluence (note: in control samples there was no amphiphile present, whereas in experimental samples 250 μM of Apn-based amphiphile was present). Adipogenic differentiation was induced by culturing the cells for 23 days in adipogenic induction media (from Lonza—MSCs Adipogenic Single Quote kit containing h-Insulin (recombinant), L-Glutamine, Dexamethasone, Indomethacin, IBMX (3-isobuty-1-methyl-xanthine), Pen/Strep) and adipogenic maintenance media (from Lonza—MSCs Adipogenic Single Quote kit containing h-Insulin (recombinant), L-Glutamine, Pen/Strep). […] Adipogenesis was evaluated by Oil Red O staining. Following aspiration of the media, cells were washed once with PBS, and fixed in PBS with 3.7% formaldehyde for 30 min at room temperature. Following fixation cells were rinsed with distilled water for a few minutes, and incubated with isopropanol containing an Oil Red O working solution (prepared by diluting 30 mL of 0.5% isopropanol/Oil Red O solution with 20 mL of distilled water). After 45 minutes culture well were rinsed twice with distilled water and 1 mL of hematoxylin was added to each well for 1 minute followed by aspiration and washing with distilled water. The wells were viewed using an inverted phase contrast microscope.

For data set [4], the system named is mesenchymal stem cells (MSCs). As to the kind of experiment: MSC osteogenic differentiation, alkaline phosphatase staining. In kind it is cell-based, human. The following applies: 250 μM, 23 days. The procedure:
as §1
Osteogenic Differentiation. MSCs were seeded in the wells of 24 well plates, and were culture in MSC expansion media until they reach 90% confluence (note: in control samples there was no amphiphile present, whereas in experimental samples 250 μM of Apn-based amphiphile was present). Osteogenic differentiation was induced by culturing the cells for 23 days in osteogenic induction media (from Lonza—MSCs Osteogenic Single Quote kit) containing dexamethasone, β-glycerophosphate, L-ascorbic acid-2-phosphate, and α-MEM. The media in both groups was changed every 3 days (note: each time while changing the media, 250 μM of Apn-based amphiphiles were added to maintain constant concentration). Osteogenesis was evaluated by cell membrane associated alkaline phosphatase activity. Alkaline phosphatase activity was examined after 23 days by carefully aspirating the media and washing the cells with PBS. The cells were fixed with 3.7% formaldehyde solution for 15 min at room temperature followed by rinsing with distilled water. 0.06% Red Violet LB salt solution in Tris HCl was added with distilled water containing DMF and Naphthol AS MX-PO4. The plates were incubated for 45 minutes at room temperature and then the wells were rinsed 3 times with distilled water and imaged under with inverted phase contrast microscope.

For data set [5], the target named is T1, lipase (Lipolase 100L, Type EX) (Thermomyces lanuginosus, UniProt O59952).
T1 construct: purchased Novozymes through Brenntag North America Lipolase 100L, Type EX
T1 sequence (O59952 23-291): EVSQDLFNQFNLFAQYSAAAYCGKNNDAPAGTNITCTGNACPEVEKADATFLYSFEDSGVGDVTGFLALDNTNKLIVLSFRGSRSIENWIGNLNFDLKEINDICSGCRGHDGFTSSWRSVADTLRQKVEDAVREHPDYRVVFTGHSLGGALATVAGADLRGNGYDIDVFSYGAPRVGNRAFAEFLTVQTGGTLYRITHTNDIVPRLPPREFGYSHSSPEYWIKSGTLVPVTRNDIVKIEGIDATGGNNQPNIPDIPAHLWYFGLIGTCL
As to the kind of experiment: Enzyme-triggered hydrogel degradation and drug release. In kind it is in vitro ADME. As to conditions: curcumin-encapsulated hydrogel, lipase, 37° C., several days. The procedure: Encapsulation and release of curcumin was previously studied by the Ultra-Violet absorbance spectroscopy (λmax at 424 nm). Absorbance spectrum of modified Apn-7-COOH was similar to that of Apn (FIG. 6B). In this instance, enzyme-triggered single and multiple drug delivery has been carried out using two sets of hydrogel samples, i.e., hydrogels of Apn-7-COOH and Apn-8-Apn with and without curcumin. In the first set, lipase (Lipolase 100L, Type EX, lipase units 100 KLU/g) was added to the preformed hydrogel of Apn-7-COOH (2 wt %) and kept it at 37° C. which is lower than gel melting temperature. It was anticipated that lipase (esterase) would hydrolyze the ester bond of prodrug-based gelator (Apn-7-COOH) to release acetaminophen and dicarboxylic acid as the hydrogel degrades. As expected, after 48 hours the gel completely degraded and became a clear solution.
To test this further, and examine multiple (two) drugs delivery (FIGS. 6A-6E), curcumin was encapsulated in the hydrogel of Apn-7-COOH (2 wt %) and to that lipase was added and kept it at 37° C. Absorbance spectra were recorded on aliquots which were collected (after the addition of enzyme to the hydrogel) at regular intervals (FIG. 6C). […] The concentration of the enzyme used in these in vitro experiments is higher than physiological concentration of esterases (for example, physiological concentration of cholesterol esterase is 7 U/ml).
Increasing either concentration of enzyme or incubation temperature to 45° C. doubles the drug release rate, which was correlating with previous findings.
To analyze the gel degradation mechanism, another prodrug Apn-5-ether-COOH was synthesized (FIG. 2), where hydrocarbon chain (which is bearing terminal carboxylic acid) was connected to the acetaminophen through an ether bond (C—O—C) to prevent the esterolytic cleavage by lipase.

Data set [6] can be described thus: Gelation ability of polyol amphiphiles in water and organic solvents. In kind it is physicochemical. Further details: key: G = stable gel at room temperature; P = precipitate; Sol = soluble. From the text:
Examples of suitable solvents include water, salt water (such as a NaCl solution), different […] such as TRISZMA buffers, and alkaline and acidic solutions. In addition to water-based solutions, the compounds can gel various aromatic and non-aromatic organic solvents, such as benzene, toluene, hexane, and acetonitrile. All the gels obtained in Table 7 were thermally reversible. Above their gelation temperature, the gels dissolved in solvent, but could be returned to their original gel state upon cooling.

`CC(=O)Nc1ccc(OC(=O)CCCCCCC(=O)Oc2ccc(NC(C)=O)cc2)cc1` [Apn-8-Apn]: the Gelation ability entry was “S” in data set [1] (solvent chloroform); “S” in data set [1] (solvent ethanol); “I” in data set [1] (solvent ethyl acetate); “S” in data set [1] (solvent isopropanol); “S” in data set [1] (solvent methanol); “S” in data set [1] (solvent t-butanol). In addition, in data set [1] (solvent water), the Gelation ability entry is reported as “G”. Besides, the minimum gelation concentration in data set [1] (solvent water) is given as 1.1 wt/v %. Besides, in data set [1], the “gelation in water (in words)” value is given as “formed stable hydrogels”. The viable cells in data set [2] turned out to be 82%. In addition, in data set [3], the “adipogenic differentiation, Oil Red O (ORO) staining” value is on record as “robust capacity; also recorded: equally stained for ORO”. In addition, the “osteogenic differentiation, alkaline phosphatase (ALP) staining” value in data set [4] is listed as “robust capacity; also recorded: equally stained for ALP”.

As for `CC(=O)Nc1ccc(OCCCCCC(=O)O)cc1` [Apn-5-ether-COOH], the “gelation in water (in words)” value in data set [1] is listed as “gelation behavior akin to Apn-7-COOH”. Moreover, in data set [5], the “state of hydrogel after incubation with lipase” value is on record as “still intact”. The “curcumin release into the solution” value in data set [5] (absorption spectroscopy) is reported as “prevented curcumin release”.

For `CCCCCCCCCCCCCCCC(=O)NC(CO)(CO)CO` [polyol-16], the Gelation ability result in data set [6] (solvent 1,4-dioxane) was “Sol”; in data set [6] (solvent CCl4), “G”; in data set [6] (solvent CH3CN) it was “G”; in data set [6] (solvent CHCl3), “Sol”; in data set [6] (solvent DMSO), “Sol”; in data set [6] (solvent NaCl (40 mM)) it was “G”. The Gelation ability result in data set [6] (solvent TRIS (50 mM)) was “G”; in data set [6] (solvent acetone) it was “Sol”; in data set [6] (solvent acidic (pH < 3)), “G”; in data set [6] (solvent basic (pH > 12)), “G”; in data set [6] (solvent benzene) it was “G”; in data set [6] (solvent cyclohexane), “G”. For the same compound, the Gelation ability entry in data set [6] (solvent toluene) and in data set [6] (solvent water) was “G” each time.

For `CC(=O)Nc1ccc(OC(=O)CCCCCCCCCCCCC(=O)Oc2ccc(NC(C)=O)cc2)cc1` [Apn-14-Apn], the Gelation ability result was “S” in data set [1] (solvent chloroform); “S” in data set [1] (solvent ethanol); “I” in data set [1] (solvent ethyl acetate); “S” in data set [1] (solvent isopropanol); “S” in data set [1] (solvent methanol); “S” in data set [1] (solvent t-butanol). Besides, the Gelation ability result in data set [1] (solvent water) was “G”. In data set [1] (solvent water), the minimum gelation concentration was 0.9 wt/v %. Moreover, the “solubility in water (in words)” value in data set [1] is reported as “insoluble”.

With `CCCCCCCCCCCC(=O)Oc1ccc(NC(C)=O)cc1` [Apn-11-CH3], the Gelation ability entry in data set [1] (solvent chloroform) is reported as “S”; in data set [1] (solvent ethanol) it was “G”; in data set [1] (solvent ethyl acetate) it was “P”; in data set [1] (solvent isopropanol) it was “G”; in data set [1] (solvent methanol), “S”; in data set [1] (solvent t-butanol), “G”. Further, in data set [1] (solvent water), the Gelation ability result is “I”. Besides, the minimum gelation concentration is recorded as 1.5 wt/v % in data set [1] (solvent ethanol), 0.8 wt/v % in data set [1] (solvent isopropanol) and 0.6 wt/v % in data set [1] (solvent t-butanol). Also, the “solubility in water (in words)” value in data set [1] is “not soluble”. In addition, the “gelation in water (in words)” value in data set [1] is recorded as “did not gelate”.

For `CC(=O)Nc1ccc(OC(=O)CCCCCCCCCCCCC(=O)O)cc1` [Apn-13-COOH], the Gelation ability entry in data set [1] (solvent chloroform) is given as “S”; in data set [1] (solvent ethanol), “S”; in data set [1] (solvent ethyl acetate), “I”; in data set [1] (solvent isopropanol), “S”; in data set [1] (solvent methanol) it was “S”; in data set [1] (solvent t-butanol), “S”. The Gelation ability entry in data set [1] (solvent water) is “G”. The minimum gelation concentration in data set [1] (solvent water) is recorded as 0.6 wt/v %. Moreover, the “solubility in water (in words)” value in data set [1] was “sparingly soluble”.
